Like-named read-outs stand apart in the source and are kept apart here.
Legend:
Assay in all cases: Cell surface BCMA by FACS
Assay type in all cases: cell-based, human
[1] = test system: BC-1 cells (B-cell Lymphoma); conditions: for EC50: Homo sapiens
Experimental: (§1) […] cell lines, comprising 9 subtypes of lymphomas (see Table 1), were seeded at 1×10^5 cells/well in a total volume of 250 μl into a 96-well plate. The cells were cultured in RPMI medium supplemented with 10% FCS. Compound (22) was added to the cell cultures at a concentration of 10 μM, 1 μM, 100 nM, 10 nM, 1 nM, 100 pM, 10 pM, 1 pM, and 100 fM, and cell lines (8 from Hadassah Medical Center, 31 from Eurofins) were incubated at 37° C. for 24 hours with Compound (22). Following incubation, the cells were collected and BCMA levels were evaluated on the cell surface for cell-bound BCMA. Cells were stained with an anti-BCMA antibody (PE anti-human 19F2 BCMA, Biolegend), and cell surface BCMA levels were determined by FACS analysis (Mean Fluorescence Intensity. Soluble BCMA levels were analyzed by ELISA (Human BCMA/TNFRSF17 DuoSet kit: R&D Systems).

[2] = test system: DOHH-2 cells (DLBCL); conditions: for EC50: Homo sapiens
Experimental: as §1

[3] = test system: Daudi cells (Burkitt's Lymphoma); conditions: for EC50: Homo sapiens
Experimental: as §1

[4] = test system: EB-3 cells (Burkitt's Lymphoma); conditions: for EC50: Homo sapiens
Experimental: as §1

[5] = test system: GA-10 cells (Burkitt's Lymphoma); conditions: for EC50: Homo sapiens
Experimental: as §1

[6] = test system: H9 cells (Cutaneous T-cell Lymphoma); conditions: for EC50: Homo sapiens
Experimental: as §1

[7] = test system: JVM-2 cells (Mantle Cell Lymphoma); conditions: for EC50: Homo sapiens
Experimental: as §1

[8] = test system: Jeko-1 cells (Mantle Cell Lymphoma); conditions: for EC50: Homo sapiens
Experimental: as §1

[9] = test system: Jiyoye cells (Burkitt's Lymphoma); conditions: for EC50: Homo sapiens
Experimental: as §1

[10] = test system: L-248 cells (Hodgkin's Lymphoma); conditions: for EC50: Homo sapiens
Experimental: as §1

[11] = test system: Namalwa cells (Burkitt's Lymphoma); conditions: for EC50: Homo sapiens
Experimental: as §1

[12] = test system: REC-1 cells (Mantle Cell Lymphoma); conditions: for EC50: Homo sapiens
Experimental: as §1

[13] = test system: RPMI-6666 cells (Hodgkin's Lymphoma); conditions: for EC50: Homo sapiens
Experimental: as §1

[14] = test system: Ramos cells (Burkitt's Lymphoma); conditions: for EC50: Homo sapiens
Experimental: as §1

[15] = test system: ST486 cells (DLBCL); conditions: for EC50: Homo sapiens
Experimental: as §1

[16] = test system: SUDHL-10 cells (DLBCL); conditions: for EC50: Homo sapiens
Experimental: as §1

[17] = test system: SUDHL-4 (Eurofins) cells (DLBCL); printed SUDHL in Table 1; conditions: for EC50: Homo sapiens, SU-DHL-4
Experimental: as §1

[18] = test system: SUDHL-8 cells (DLBCL); conditions: for EC50: Homo sapiens
Experimental: as §1

[19] = test system: TUR cells (Histiocytic Lymphoma); conditions: for EC50: Homo sapiens
Experimental: as §1

[20] = 24 h, read-out: BCMA (Mean Fluorescence Intensity) EC50

Cc1cccc2c1NC(=O)[C@@H](NC(=O)[C@H](CCC(F)(F)F)[C@H](CCC(F)(F)F)C(N)=O)N=C2c1cccc(F)c1 [Compound (22), (2R,3S)—N-((3S)-5-(3-fluorophenyl)-9-methyl-2-oxo-2,3-dihydro-1H-1,4-benzodiazepin-3-yl)-2,3-bis(3,3,3-trifluoropropyl)succinamide]
mBCMA (MFI) Fold Increase [1]: 5.9 fold
BCMA (Mean Fluorescence Intensity) 1 nM Compound (22) ([1]; 1 nM, 24 h): 676
BCMA (Mean Fluorescence Intensity) 100 nM Compound (22) ([1]; 100 nM, 24 h): 3694
EC50 ([1]; BC1, 24 h, read-out: BCMA (Mean Fluorescence Intensity) EC50): 30.6 nM
EC50 ([1]; BC1, read-out: mBCMA (MFI) EC50): 30.6 nM
mBCMA (MFI) Fold Increase [2]: 4.4 fold
BCMA (Mean Fluorescence Intensity) 1 nM Compound (22) ([2]; 1 nM, 24 h): 8033
BCMA (Mean Fluorescence Intensity) 100 nM Compound (22) ([2]; 100 nM, 24 h): 12620
EC50 [2, 20]: 0.87 nM
EC50 ([2]; read-out: mBCMA (MFI) EC50): 0.87 nM
mBCMA (MFI) Fold Increase [3]: 4.2 fold
BCMA (Mean Fluorescence Intensity) 1 nM Compound (22) ([3]; 1 nM, 24 h): 1421
BCMA (Mean Fluorescence Intensity) 100 nM Compound (22) ([3]; 100 nM, 24 h): 2242
cell-bound BCMA ([3]; FIG. 7A): increased cell-bound BCMA
EC50 [3, 20]: 4.9 nM
EC50 ([3]; read-out: mBCMA (MFI) EC50): 4.9 nM
mBCMA (MFI) Fold Increase [4]: 0.5 fold
BCMA (Mean Fluorescence Intensity) 1 nM Compound (22) ([4]; 1 nM, 24 h): 549
BCMA (Mean Fluorescence Intensity) 100 nM Compound (22) ([4]; 100 nM, 24 h): 449
EC50 [4, 20]: > 10000 nM
EC50 ([4]; read-out: mBCMA (MFI) EC50): > 10000 nM
mBCMA (MFI) Fold Increase [5]: 5.6 fold
BCMA (Mean Fluorescence Intensity) 1 nM Compound (22) ([5]; 1 nM, 24 h): 41993
BCMA (Mean Fluorescence Intensity) 100 nM Compound (22) ([5]; 100 nM, 24 h): 51080
EC50 [5, 20]: 0.56 nM
EC50 ([5]; read-out: mBCMA (MFI) EC50): 0.56 nM
mBCMA (MFI) Fold Increase [6]: 1.1 fold
BCMA (Mean Fluorescence Intensity) 1 nM Compound (22) ([6]; 1 nM, 24 h): 811
BCMA (Mean Fluorescence Intensity) 100 nM Compound (22) ([6]; 100 nM, 24 h): 900
EC50 [6, 20]: > 10000 nM
EC50 ([6]; read-out: mBCMA (MFI) EC50): > 10000 nM
mBCMA (MFI) Fold Increase [7]: 7.0 fold
BCMA (Mean Fluorescence Intensity) 1 nM Compound (22) ([7]; 1 nM, 24 h): 4437
BCMA (Mean Fluorescence Intensity) 100 nM Compound (22) ([7]; 100 nM, 24 h): 21757
EC50 [7, 20]: 3.1 nM
EC50 ([7]; read-out: mBCMA (MFI) EC50): 3.1 nM
EC50 ([8]; JeKo-1, read-out: mBCMA (MFI) EC50): 1.2 nM
EC50 ([8]; Jeko-1, 24 h, read-out: BCMA (Mean Fluorescence Intensity) EC50): 1.2 nM
mBCMA (MFI) Fold Increase ([8]; Jeko-1): 7.4 fold
BCMA (Mean Fluorescence Intensity) 1 nM Compound (22) ([8]; Jeko-1, 1 nM, 24 h): 1654
BCMA (Mean Fluorescence Intensity) 100 nM Compound (22) ([8]; Jeko-1, 100 nM, 24 h): 2885
EC50 ([9]; JIYOYE, read-out: mBCMA (MFI) EC50): 7.6 nM
EC50 ([9]; Jiyoye, 24 h, read-out: BCMA (Mean Fluorescence Intensity) EC50): 7.6 nM
mBCMA (MFI) Fold Increase ([9]; Jiyoye): 4.2 fold
BCMA (Mean Fluorescence Intensity) 1 nM Compound (22) ([9]; Jiyoye, 1 nM, 24 h): 1864
BCMA (Mean Fluorescence Intensity) 100 nM Compound (22) ([9]; Jiyoye, 100 nM, 24 h): 2616
cell-bound BCMA ([9]; Jiyoye, FIG. 8A): increased cell-bound BCMA
mBCMA (MFI) Fold Increase [10]: 1.0 fold
BCMA (Mean Fluorescence Intensity) 1 nM Compound (22) ([10]; 1 nM, 24 h): 440
BCMA (Mean Fluorescence Intensity) 100 nM Compound (22) ([10]; 100 nM, 24 h): 445
EC50 [10, 20]: > 10000 nM
EC50 ([10]; read-out: mBCMA (MFI) EC50): > 10000 nM
mBCMA (MFI) Fold Increase [11]: 2.0 fold
BCMA (Mean Fluorescence Intensity) 1 nM Compound (22) ([11]; 1 nM, 24 h): 1395
BCMA (Mean Fluorescence Intensity) 100 nM Compound (22) ([11]; 100 nM, 24 h): 1690
EC50 [11, 20]: 10.7 nM
EC50 ([11]; read-out: mBCMA (MFI) EC50): 10.7 nM
mBCMA (MFI) Fold Increase [12]: 1.0 fold
BCMA (Mean Fluorescence Intensity) 1 nM Compound (22) ([12]; 1 nM, 24 h): 217
BCMA (Mean Fluorescence Intensity) 100 nM Compound (22) ([12]; 100 nM, 24 h): 243
EC50 ([12]; Rec1, 24 h, read-out: BCMA (Mean Fluorescence Intensity) EC50): > 10000 nM
EC50 ([12]; Rec1, read-out: mBCMA (MFI) EC50): > 10000 nM
mBCMA (MFI) Fold Increase [13]: 6.6 fold
BCMA (Mean Fluorescence Intensity) 1 nM Compound (22) ([13]; 1 nM, 24 h): 971.5
BCMA (Mean Fluorescence Intensity) 100 nM Compound (22) ([13]; 100 nM, 24 h): 3287.5
EC50 [13, 20]: 7 nM
EC50 ([13]; read-out: mBCMA (MFI) EC50): 7 nM
mBCMA (MFI) Fold Increase [14]: 10.8 fold
BCMA (Mean Fluorescence Intensity) 1 nM Compound (22) ([14]; 1 nM, 24 h): 4899
BCMA (Mean Fluorescence Intensity) 100 nM Compound (22) ([14]; 100 nM, 24 h): 10264
EC50 [14, 20]: 1.4 nM
EC50 ([14]; read-out: mBCMA (MFI) EC50): 1.4 nM
mBCMA (MFI) Fold Increase [15]: 4.5 fold
BCMA (Mean Fluorescence Intensity) 1 nM Compound (22) ([15]; 1 nM, 24 h): 10564
BCMA (Mean Fluorescence Intensity) 100 nM Compound (22) ([15]; 100 nM, 24 h): 13410
EC50 [15, 20]: 0.58 nM
EC50 ([15]; read-out: mBCMA (MFI) EC50): 0.58 nM
mBCMA (MFI) Fold Increase [16]: 6.7 fold
BCMA (Mean Fluorescence Intensity) 1 nM Compound (22) ([16]; 1 nM, 24 h): 6061
BCMA (Mean Fluorescence Intensity) 100 nM Compound (22) ([16]; 100 nM, 24 h): 7822
EC50 ([16]; SU-DHL10, 24 h, read-out: BCMA (Mean Fluorescence Intensity) EC50): 5.9 nM
EC50 ([16]; SU-DHL10, read-out: mBCMA (MFI) EC50): 5.9 nM
EC50 ([17]; SUDHL-4 (Eurofins), read-out: mBCMA (MFI) EC50): 1.6 nM
EC50 ([17]; SUDHL, 24 h, read-out: BCMA (Mean Fluorescence Intensity) EC50): 1.6 nM
mBCMA (MFI) Fold Increase ([17]; SUDHL-4 (Eurofins)): 9.1 fold
BCMA (Mean Fluorescence Intensity) 1 nM Compound (22) ([17]; SUDHL, 1 nM, 24 h): 7568
BCMA (Mean Fluorescence Intensity) 100 nM Compound (22) ([17]; SUDHL, 100 nM, 24 h): 20540
mBCMA (MFI) Fold Increase [18]: 1.7 fold
BCMA (Mean Fluorescence Intensity) 1 nM Compound (22) ([18]; 1 nM, 24 h): 350
BCMA (Mean Fluorescence Intensity) 100 nM Compound (22) ([18]; 100 nM, 24 h): 414
EC50 ([18]; SU-DHL-8, 24 h, read-out: BCMA (Mean Fluorescence Intensity) EC50): > 10000 nM
EC50 ([18]; SU-DHL-8, read-out: mBCMA (MFI) EC50): > 10000 nM
mBCMA (MFI) Fold Increase [19]: 1.0 fold
BCMA (Mean Fluorescence Intensity) 1 nM Compound (22) ([19]; 1 nM, 24 h): 464
BCMA (Mean Fluorescence Intensity) 100 nM Compound (22) ([19]; 100 nM, 24 h): 462
EC50 [19, 20]: > 10000 nM
EC50 ([19]; read-out: mBCMA (MFI) EC50): > 10000 nM
